Measurements taken from patent publication US20180221369A1, “COMPOSITIONS AND METHODS FOR TREATING FIBROSING DISORDERS AND CANCER” (Cedars-Sinai Medical Center, priority 2014, published 2018).

How the values were obtained:
[1] = system: chronic pancreatitis stellate cells (hCP); assay: Transwell migration assay with SDF-1, chronic pancreatitis stellate cells; format: cell-based, human; details: SDF-1 0.025 μM, 2 h; siRNA 100 nM 48 h, AMD3100 5-50 μM or INNO-406 10-100 nM 60 minutes
Procedure: The migration assays were performed by using transwell migration assays with polycarbonate membrane inserts with 8 μm pore size that is optimal for fibroblast-like cell migration (Corning Incorporated, NY, cat #3422). Stellate cells were treated with siRNA (100 nM) for 48 h, or with increasing concentrations of AMD3100 (5 μM-50 μM) or INNO-406 (10 nM-100 nM) for 60 minutes. Then, cells were placed in the migration upper chambers, in the presence or absence of SDF-1 (0.025 μM) with 2% FBS in the lower chambers. After 2 h of incubation, cells migrated to the lower chamber were counted, and the chemotactic index was determined as follows:
(number of cells migrating to SDF-1 chemokine)/(number of cells migrating to medium alone)
To distinguish chemotaxis versus chemokinesis, a control checkerboard analysis was performed.

[2] = system: normal stellate cells (hNP); details: SDF-1 0.025 μM, 2 h, AMD3100 5-50 μM 60 minutes
[3] = system: cerulein-induced pancreatic fibrosis; assay: Cerulein-induced pancreatic fibrosis (chronic pancreatitis) mouse model, Picro-Sirius Red quantitation; format: in vivo, C57BL/6J mice; details: cerulein plus 120 mg INNO-406/kg per day oral gavage for 6 weeks; cerulein alone 16.39+/−3.08%, untreated 2.00+/−0.84%
Source text: There is no optimal animal model available for human pancreatitis-induced fibrosis, to date. However, a most commonly used experimental model of chronic pancreatitis (CP) partially recapitulating human disease is repeated injection of cerulein into mice (Ulmasov, B. et al. Am J Pathol. 183, 692-708 (2013)). C57BL/6 is the most frequently used mouse strain for this type of biomedical research. In our current experiments, C57BL/6J mice (2 months old male and female) were divided into 3 groups (each group consisted of 15 animals) as follows: (1) untreated mice (saline only); (2) mice treated with cerulein for 6 weeks (50 μg/kg hourly, 6 hourly injections in one day constituted one treatment, twice-weekly); (3) mice treated with cerulein (as above) plus 120 mg INNO-406/kg per day for 6 weeks (oral gavage). When 120 mg INNO-406/kg per day is administrated orally to the mice, the concentration of INNO-406 in the soft tissues is estimated to be 0.24 μM according to pharmacokinetic studies described previously (Kimura, S. et al. Blood., 106, 3948-3954 (2005); Yokota, A, et al. Blood, 109, 306-314 (2007)). […] Picro sirius red quantitation were performed using Leica Biosystem Tissue IA Optimizer web-based program that measures positive stained intensity per area at 10× magnification. […]

[4] = 120 mg INNO-406/kg per day orally to mice; estimated according to previously described pharmacokinetic studies; cited from earlier work

Compound	SDF-1/CXCR4-induced chemotaxis (chemotactic index) [1]	SDF-1/CXCR4-induced chemotaxis (chemotactic index) [2]	pancreatic fibrosis (Picro-Sirius Red positive stained area per total area) [3]	concentration of INNO-406 in the soft tissues [4] [nM]
c1cc(CN2CCCNCCNCCCNCC2)ccc1CN1CCCNCCNCCCNCC1 [AMD3100]	could be blocked	could be blocked	–	–
Cc1ccc(NC(=O)c2ccc(CN3CC[C@H](N(C)C)C3)c(C(F)(F)F)c2)cc1Nc1nccc(-c2cncnc2)n1 [INNO-406, Bafetinib]	–	–	7.50+/−4.77%	240
